Assay results from publication PMC11950852, “Diversity Scale of Library Matters: Impact of mRNA Library Diversity Scales on the Discovery of Macrocyclic Peptides Targeting a Protein by the RaPID System” (ACS Central Science, 2025).
Where two headings read alike, the source gives them in different places. Where a SMILES comes first, the peptide text is derived from it. Bridges are numbered along the chain shown (N, C = ends).

Legend:
[1] = biological target: cMET; conditions: cited from earlier work
Description: To answer our questions raised in the introduction, we chose the ectodomain of MET fused to Fc as a selection target for two reasons. (1) Since we previously performed the RaPID campaign using a thioether-macrocyclic peptide library and successfully identified potent ligands with the range of KD of 2–20 nM (Table S1A), this target has been validated as a reliable protein to reproduce the selection experiment.[22] (2) At the time when the selection was performed previously, the NGS technology was unavailable in our laboratory, and thereby the sequences were determined by ∼40 clones available fr ... || page 9: Table S1A. Representative peptide sequences discovered by RaPID system. Residues engaged in thioether- macrocyclization are marked with asterisks. mRNA display (RaPID system) Diversity scale: >1012 Screening KD IC50 Library design/ Consensus motif/ Variants Reference Target (nM) (nM) Note Peptide sequence DW*X2MeSX2MeF-MeG/X- E6AP 0.6 DW*X8-15C* 6 (32) XMeFPC* 92 LY*WIX2TWPXVXRXC* 2 Akt2 L/DY*X4-12C* (33) 110 LY*ILVRNRXLRVDC* 2 3.8 LY*SNFRI-LysTfa-RYSNSSC* 21 SIRT2 L/DY*-Xn-LysTfa-XnC* (34) 3.7 DY*HDYRI-LysTfa-RYHTYPC* 16 94 LF*VVVSTDPWVNGLYIDC* 2 8 LF*IGHYRVKVHPISLERC* 1 VEGFR2 L/DF*X ...

[2] = biological target: Fc-fused MET (His-/hFc-tagged human MET ectodomain) (Homo sapiens, UniProt P08581); assay: SPR binding kinetics of selected macrocyclic peptides to Fc-fused MET
[3] = biological target: T1, ectodomain of MET (hepatocyte growth factor receptor) fused to Fc (UniProt P08581 25-932); assay: SPR; macrocyclic peptides on MET; concentration-dependent sensorgrams fitted by a 1:1 binding model; conditions: both partners purified
T1 construct: MET, hepatocyte growth factor receptor, a receptor tyrosine kinase; ectodomain; also called MET-Fc; Fc-tagged MET

[4] = library L/DY*X4-15C*, mRNA display (RaPID system), ref (16), read-out: KD (Table S1A, screening target cMET)

Sequence of Fc-fused MET (His-/hFc-tagged human MET ectodomain) (P08581 25-932 limits assumed): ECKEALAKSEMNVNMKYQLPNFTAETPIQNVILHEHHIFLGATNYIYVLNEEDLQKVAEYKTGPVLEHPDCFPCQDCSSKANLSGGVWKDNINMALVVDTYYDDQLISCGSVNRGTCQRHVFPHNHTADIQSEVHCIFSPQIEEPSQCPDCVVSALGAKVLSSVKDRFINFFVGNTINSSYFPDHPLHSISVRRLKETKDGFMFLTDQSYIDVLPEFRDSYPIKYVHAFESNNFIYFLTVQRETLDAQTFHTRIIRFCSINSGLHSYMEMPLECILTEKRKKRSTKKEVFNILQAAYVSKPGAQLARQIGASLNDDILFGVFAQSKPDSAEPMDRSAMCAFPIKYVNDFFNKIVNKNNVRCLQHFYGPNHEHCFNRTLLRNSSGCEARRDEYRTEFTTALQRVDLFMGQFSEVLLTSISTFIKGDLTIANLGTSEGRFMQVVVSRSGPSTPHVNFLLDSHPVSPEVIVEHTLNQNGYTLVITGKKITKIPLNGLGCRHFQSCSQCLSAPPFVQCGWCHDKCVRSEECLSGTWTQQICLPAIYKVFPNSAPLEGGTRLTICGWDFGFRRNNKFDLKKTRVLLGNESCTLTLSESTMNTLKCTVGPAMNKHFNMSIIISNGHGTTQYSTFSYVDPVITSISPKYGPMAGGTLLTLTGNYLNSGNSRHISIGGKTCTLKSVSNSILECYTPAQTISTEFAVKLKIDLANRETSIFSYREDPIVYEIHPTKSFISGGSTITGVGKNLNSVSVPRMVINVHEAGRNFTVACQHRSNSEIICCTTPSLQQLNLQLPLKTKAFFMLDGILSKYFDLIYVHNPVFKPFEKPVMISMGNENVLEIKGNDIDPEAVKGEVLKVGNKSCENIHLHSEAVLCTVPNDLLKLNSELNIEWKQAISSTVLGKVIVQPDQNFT

## DY*WYYAWDQTYKAFPC* (sidechain bridge or staple)
[1]; [4]
  Kd: 2.3 nM

## CC[C@H](C)[C@@H]1NC(=O)[C@H](Cc2ccc(O)cc2)NC(=O)CSC[C@@H](C(=O)NCC(N)=O)NC(=O)[C@H]([C@@H](C)O)NC(=O)[C@H]([C@@H](C)CC)NC(=O)[C@H](Cc2ccccc2)NC(=O)[C@H](CCCNC(=N)N)NC(=O)[C@H](Cc2c[nH]c3ccccc23)NC(=O)[C@H](CC(N)=O)NC(=O)[C@@H]2CCCN2C(=O)[C@H](CO)NC(=O)[C@H](CC(N)=O)NC(=O)[C@H](Cc2ccccc2)NC(=O)[C@H](CCC(=O)O)NC(=O)[C@H](CC(N)=O)NC(=O)[C@H](Cc2c[nH]c3ccccc23)NC(=O)[C@H](CO)NC1=O [aML5, reference compound] ({CH2CO}-YISWNEFNSPNWRFITCG-NH2; thioether N-17)
[2]; SPR conditions as E1
  kd: 0.00606 s⁻¹
[2]; pH 7.4, read-out: ka
  kon: 539000 M⁻¹ s⁻¹
[2]; read-out: ka, Measure 1
  kon: 371000 M⁻¹ s⁻¹
[2]; read-out: ka, Measure 2
  kon: 405000 M⁻¹ s⁻¹
[1]; previously determined value, read-out: KD (previous RaPID campaign)
  Kd: 19 nM

## DY*RQFNRRTHEVWNLDC* (sidechain bridge or staple)
[1]; [4]
  Kd: 2.4 nM

B1: macrocyclic peptide 12-2 (peptide)
chain: {CH2CO}-YYSWSGNVSESVKWNSCG-NH2
modifications: thioether N-17
SMILES: CC(C)[C@@H]1NC(=O)[C@H](CC(N)=O)NC(=O)CNC(=O)[C@H](CO)NC(=O)[C@H](Cc2c[nH]c3ccccc23)NC(=O)[C@H](CO)NC(=O)[C@H](Cc2ccc(O)cc2)NC(=O)[C@H](Cc2ccc(O)cc2)NC(=O)CSC[C@@H](C(=O)NCC(N)=O)NC(=O)[C@H](CO)NC(=O)[C@H](CC(N)=O)NC(=O)[C@H](Cc2c[nH]c3ccccc23)NC(=O)[C@H](CCCCN)NC(=O)[C@H](C(C)C)NC(=O)[C@H](CO)NC(=O)[C@H](CCC(=O)O)NC(=O)[C@H](CO)NC1=O
[3]
  Kd: 8.67 nM
